US8048862B2, “Macrocyclic inhibitors of hepatitis C virus replication” (priority 2008, dated 2011)

Key:
[1] = target: NS3/NS4 complexes (Hepatitis C virus genotype 1a, UniProt P27958); assay: NS3/NS4 inhibition activity (IC50); format: biochemical; conditions: Table 2, read-out: IC50
From the text: NS3-NS4 inhibition activity can be determined using known assay methods. For example, NS3/NS4 complexes may be formed and inhibitory concentrations of test compounds determined as described in U.S. Patent Application Publication Number 2007/0054842 paragraph numbers 1497-1509, which is incorporated herein by reference in its entirety. Similarly, hepatitis C replicon EC50 may be determined using known assay methods such as described in U.S. Patent Application Publication Number 2007/0054842 paragraph numbers 1510-1515. Assays may be conducted at ambient temperature (23° C.) in assay buffer containing 50 mM Tris-HCl, pH 7.5, 15% glycerol, 0.6 mM Lauryldimethylamine Oxide (LDAO), 25 μM NS4A peptide, and 10 mM Dithiothreitol (DTT).

[2] = system: hepatitis C replicon; assay: hepatitis C replicon EC50; format: cell-based; conditions: Hepatitis C virus; Table 2; hepatitis C replicon; read-out: EC50
From the text: NS3-NS4 inhibition activity can be determined using known assay methods.

Chain of NS3/NS4 complexes (P27958 1027-1657): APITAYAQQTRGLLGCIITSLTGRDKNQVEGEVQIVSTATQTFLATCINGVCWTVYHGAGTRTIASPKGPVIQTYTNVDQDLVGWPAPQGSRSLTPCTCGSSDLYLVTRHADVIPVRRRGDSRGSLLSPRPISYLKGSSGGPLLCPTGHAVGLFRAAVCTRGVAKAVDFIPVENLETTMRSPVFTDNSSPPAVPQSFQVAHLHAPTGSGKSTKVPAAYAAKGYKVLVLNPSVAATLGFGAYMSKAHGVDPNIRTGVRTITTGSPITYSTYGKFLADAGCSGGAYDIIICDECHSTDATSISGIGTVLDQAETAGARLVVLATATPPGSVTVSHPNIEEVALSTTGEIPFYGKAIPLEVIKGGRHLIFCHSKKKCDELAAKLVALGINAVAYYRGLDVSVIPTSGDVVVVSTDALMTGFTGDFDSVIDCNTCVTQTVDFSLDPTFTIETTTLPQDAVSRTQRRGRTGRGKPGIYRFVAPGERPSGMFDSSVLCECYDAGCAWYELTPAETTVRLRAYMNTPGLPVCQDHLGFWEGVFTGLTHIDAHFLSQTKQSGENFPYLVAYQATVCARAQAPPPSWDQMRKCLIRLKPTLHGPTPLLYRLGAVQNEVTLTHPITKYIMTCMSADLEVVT
Chain of NS3/NS4 complexes (P27958 1658-1711): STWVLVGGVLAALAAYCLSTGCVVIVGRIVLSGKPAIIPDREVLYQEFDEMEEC

Row | SMILES | IC50 [1] [nM] | EC50 [2] [nM]
1 | O=C1N[C@]2(C(=O)O)C[C@H]2/C=C\CCCCC[C@H](Nc2ccc(-c3ccccc3)cc2)C(=O)N2C[C@H](Oc3nc4ccccc4s3)C[C@@H]12 [Compound 325] | 75 to 500 | > 500
2 | CC1(S(=O)(=O)NC(=O)[C@@]23C[C@H]2/C=C\CCCCC[C@H](Nc2ccc(-c4ccccc4)cc2)C(=O)N2C[C@H](Oc4nc5ccccc5s4)C[C@H]2C(=O)N3)CC1 [Compound 326] | < 10 | > 500
3 | CC1(S(=O)(=O)NC(=O)[C@@]23C[C@H]2/C=C\CCCCC[C@H](Nc2cc(F)cc(F)c2)C(=O)N2C[C@H](Oc4nc5ccccc5s4)C[C@H]2C(=O)N3)CC1 [Compound 328] | < 10 | 10 to 75
4 | CC1(S(=O)(=O)NC(=O)[C@@]23C[C@H]2/C=C\CCCCC[C@H](Nc2ccc(C(F)(F)F)cc2)C(=O)N2C[C@H](Oc4nc5ccccc5s4)C[C@H]2C(=O)N3)CC1 [Compound 330] | < 10 | 75 to 500
5 | O=C1N[C@]2(C(=O)O)C[C@H]2/C=C\CCCCC[C@H](Nc2ccc(Cl)cc2)C(=O)N2C[C@H](Oc3nc4ccccc4s3)C[C@@H]12 [Compound 331] | 75 to 500 | > 500
6 | CC1(S(=O)(=O)NC(=O)[C@@]23C[C@H]2/C=C\CCCCC[C@H](Nc2ccc(Cl)cc2)C(=O)N2C[C@H](Oc4nc5ccccc5s4)C[C@H]2C(=O)N3)CC1 [Compound 332] | < 10 | 75 to 500
7 | O=C1N[C@]2(C(=O)O)C[C@H]2/C=C\CCCCC[C@H](Nc2ccc(Cl)c(Cl)c2)C(=O)N2C[C@H](Oc3nc4ccccc4s3)C[C@@H]12 [Compound 333] | 75 to 500 | > 500
8 | CC1(S(=O)(=O)NC(=O)[C@@]23C[C@H]2/C=C\CCCCC[C@H](Nc2ccc(Cl)c(Cl)c2)C(=O)N2C[C@H](Oc4nc5ccccc5s4)C[C@H]2C(=O)N3)CC1 [Compound 334] | < 10 | 75 to 500
9 | O=C1N[C@]2(C(=O)O)C[C@H]2/C=C\CCCCC[C@H](Nc2cccc(Cl)c2)C(=O)N2C[C@H](Oc3nc4ccccc4s3)C[C@@H]12 [Compound 335] | 10 to 75 | > 500
10 | CC1(S(=O)(=O)NC(=O)[C@@]23C[C@H]2/C=C\CCCCC[C@H](Nc2cc(C(F)(F)F)cc(C(F)(F)F)c2)C(=O)N2C[C@H](Oc4nc5ccccc5s4)C[C@H]2C(=O)N3)CC1 [Compound 336] | < 10 | 75 to 500
11 | CC1(S(=O)(=O)NC(=O)[C@@]23C[C@H]2/C=C\CCCCC[C@H](Nc2cccc(Cl)c2)C(=O)N2C[C@H](Oc4nc5ccccc5s4)C[C@H]2C(=O)N3)CC1 [Compound 337] | < 10 | 75 to 500
12 | O=C1N[C@]2(C(=O)O)C[C@H]2/C=C\CCCCC[C@H](Nc2cc(C(F)(F)F)cc(C(F)(F)F)c2)C(=O)N2C[C@H](Oc3nc4ccccc4s3)C[C@@H]12 [Compound 338] | 75 to 500 | > 500
13 | CC1(S(=O)(=O)NC(=O)[C@@]23C[C@H]2/C=C\CCCCC[C@H](Nc2ccccc2F)C(=O)N2C[C@H](Oc4nc5ccccc5s4)C[C@H]2C(=O)N3)CC1 [Compound 339] | < 10 | 75 to 500
14 | CC1(S(=O)(=O)NC(=O)[C@@]23C[C@H]2/C=C\CCCCC[C@H](Nc2cc(Cl)cc(Cl)c2)C(=O)N2C[C@H](Oc4nc5ccccc5s4)C[C@H]2C(=O)N3)CC1 [Compound 340] | < 10 | 10 to 75
15 | CC1(S(=O)(=O)NC(=O)[C@@]23C[C@H]2/C=C\CCCCC[C@H](Nc2ccc(F)c(F)c2)C(=O)N2C[C@H](Oc4nc5ccccc5s4)C[C@H]2C(=O)N3)CC1 [Compound 341] | < 10 | 10 to 75
16 | CC1(S(=O)(=O)NC(=O)[C@@]23C[C@H]2/C=C\CCCCC[C@H](Nc2ccc4ccccc4c2)C(=O)N2C[C@H](Oc4nc5ccccc5s4)C[C@H]2C(=O)N3)CC1 [Compound 342] | < 10 | 75 to 500
17 | CC1(S(=O)(=O)NC(=O)[C@@]23C[C@H]2/C=C\CCCCC[C@H](Nc2cc(F)cc(C(F)(F)F)c2)C(=O)N2C[C@H](Oc4nc5ccccc5s4)C[C@H]2C(=O)N3)CC1 [Compound 345] | < 10 | 10 to 75
18 | CC1(S(=O)(=O)NC(=O)[C@@]23C[C@H]2/C=C\CCCCC[C@H](Nc2cc(F)cc(C(F)(F)F)c2)C(=O)N2C[C@H](Oc4nccc5ccccc45)C[C@H]2C(=O)N3)CC1 [Compound 346] | < 10 | < 10
19 | CC1(S(=O)(=O)NC(=O)[C@@]23C[C@H]2/C=C\CCCCC[C@H](Nc2ccc(F)c(C(F)(F)F)c2)C(=O)N2C[C@H](Oc4nccc5ccccc45)C[C@H]2C(=O)N3)CC1 [Compound 347] | < 10 | < 10

Row | SMILES | IC50 [1] [nM] | EC50 [2] [nM]
20 | O=C1N[C@]2(C(=O)NS(=O)(=O)C3CC3)C[C@H]2/C=C\CCCCC[C@H](Nc2ccc(F)cc2)C(=O)N2C[C@H](Oc3nc4ccccc4s3)C[C@@H]12 [Compound 348] | < 10 | 75 to 500
21 | CC1(S(=O)(=O)NC(=O)[C@@]23C[C@H]2/C=C\CCCCC[C@H](Nc2ccc(F)cc2)C(=O)N2C[C@H](Oc4nc5ccccc5s4)C[C@H]2C(=O)N3)CC1 [Compound 349] | < 10 | 10 to 75
22 | Cc1ccc2nc(O[C@@H]3C[C@H]4C(=O)N[C@]5(C(=O)NS(=O)(=O)C6(C)CC6)C[C@H]5/C=C\CCCCC[C@H](Nc5cc(F)cc(C(F)(F)F)c5)C(=O)N4C3)sc2c1 [Compound 350] | < 10 | 75 to 500
23 | CC1(S(=O)(=O)NC(=O)[C@@]23C[C@H]2/C=C\CCCCC[C@H](Nc2cc(F)cc(C(F)(F)F)c2)C(=O)N2C[C@H](Oc4nc5ccc(Cl)cc5s4)C[C@H]2C(=O)N3)CC1 [Compound 351] | < 10 | 75 to 500
24 | CC1(S(=O)(=O)NC(=O)[C@@]23C[C@H]2/C=C\CCCCC[C@H](Nc2cc(F)cc(C(F)(F)F)c2)C(=O)N2C[C@H](Oc4nc5ccc(Br)cc5s4)C[C@H]2C(=O)N3)CC1 [Compound 352] | < 10 | 10 to 75
25 | CC1(S(=O)(=O)NC(=O)[C@@]23C[C@H]2/C=C\CCCCC[C@H](Nc2cc(F)cc(C(F)(F)F)c2)C(=O)N2C[C@H](Oc4nc5ccccc5o4)C[C@H]2C(=O)N3)CC1 [Compound 353] | < 10 | 75 to 500
26 | COc1ccc2c(O[C@@H]3C[C@H]4C(=O)N[C@]5(C(=O)O)C[C@H]5/C=C\CCCCC[C@H](Nc5cc(F)cc(C(F)(F)F)c5)C(=O)N4C3)cc(-c3ccccc3)nc2c1 [Compound 354] | < 10 | 75 to 500
27 | COc1ccc2c(O[C@@H]3C[C@H]4C(=O)N[C@]5(C(=O)NS(=O)(=O)C6(C)CC6)C[C@H]5/C=C\CCCCC[C@H](Nc5cc(F)cc(C(F)(F)F)c5)C(=O)N4C3)cc(-c3ccccc3)nc2c1 [Compound 355] | < 10 | < 10
28 | COc1ccc2c(O[C@@H]3C[C@H]4C(=O)N[C@]5(C(=O)NS(=O)(=O)C6CC6)C[C@H]5/C=C\CCCCC[C@H](Nc5ccc(F)c(C(F)(F)F)c5)C(=O)N4C3)cc(-c3ccccc3)nc2c1 [Compound 356] | < 10 | < 10
29 | COc1ccc2c(O[C@@H]3C[C@H]4C(=O)N[C@]5(C(=O)NS(=O)(=O)C6(C)CC6)C[C@H]5/C=C\CCCCC[C@H](Nc5cc(F)cc(C(F)(F)F)c5)C(=O)N4C3)cc(-c3nc(C(C)C)cs3)nc2c1C [Compound 358] | < 10 | 10 to 75
30 | COc1ccc2c(O[C@@H]3C[C@H]4C(=O)N[C@]5(C(=O)NS(=O)(=O)C6(C)CC6)C[C@H]5/C=C\CCCCC[C@H](Nc5ccccc5)C(=O)N4C3)cc(-c3nc(C(C)C)cs3)nc2c1C [Compound 359] | < 10 | < 10
31 | COc1ccc2c(O[C@@H]3C[C@H]4C(=O)N[C@]5(C(=O)NS(=O)(=O)C6(C)CC6)C[C@H]5/C=C\CCCCC[C@H](Nc5cccc(C(F)(F)F)c5)C(=O)N4C3)cc(-c3nc(C(C)C)cs3)nc2c1C [Compound 360] | < 10 | < 10
32 | COc1ccc2c(O[C@@H]3C[C@H]4C(=O)N[C@]5(C(=O)NS(=O)(=O)C6(C)CC6)C[C@H]5/C=C\CCCCC[C@H](Nc5cccc(F)c5)C(=O)N4C3)cc(-c3nc(C(C)C)cs3)nc2c1C [Compound 361] | < 10 | < 10
33 | COc1ccc2c(O[C@@H]3C[C@H]4C(=O)N[C@]5(C(=O)NS(=O)(=O)C6(C)CC6)C[C@H]5/C=C\CCCCC[C@H](Nc5ccc(F)cc5)C(=O)N4C3)cc(-c3nc(C(C)C)cs3)nc2c1C [Compound 362] | < 10 | < 10
34 | COc1ccc2c(O[C@@H]3C[C@H]4C(=O)N[C@]5(C(=O)NS(=O)(=O)C6(C)CC6)C[C@H]5/C=C\CCCCC[C@H](Nc5cc(F)cc(F)c5)C(=O)N4C3)cc(-c3nc(C(C)C)cs3)nc2c1C [Compound 363] | < 10 | 10 to 75
35 | CC(C)n1c(O[C@@H]2C[C@H]3C(=O)N[C@]4(C(=O)NS(=O)(=O)C5(C)CC5)C[C@H]4/C=C\CCCCC[C@H](Nc4ccccc4)C(=O)N3C2)nc2ccccc21 [Compound 365] | < 10 | < 10
36 | COc1ccc2c(O[C@@H]3C[C@H]4C(=O)N[C@]5(C(=O)NS(=O)(=O)C6CC6)C[C@H]5/C=C\CCCCC[C@H](Nc5cccc(C(F)(F)F)c5)C(=O)N4C3)cc(-c3nc(C(C)C)cs3)nc2c1C [Compound 369] | < 10 | < 10
37 | COc1ccc2c(O[C@@H]3C[C@H]4C(=O)N[C@]5(C(=O)NS(=O)(=O)C6(C)CC6)C[C@H]5/C=C\CCCCC[C@H](Nc5ccc(F)c(C(F)(F)F)c5)C(=O)N4C3)cc(-c3nc(C(C)C)cs3)nc2c1C [Compound 374] | < 10 | < 10
38 | O=C1N[C@]2(C(=O)NS(=O)(=O)C3CC3)C[C@H]2/C=C\CCCCC[C@H](Nc2ccc(F)c(C(F)(F)F)c2)C(=O)N2C[C@H](Oc3nccc4ccccc34)C[C@@H]12 [Compound 375] | < 10 | < 10
